# US5314877A, “Water-soluble pentacyclic triterpene composition and method for producing the same” (Hokkaido Sugar Co., Ltd., priority 1990, dated 1994)
# “Also recorded” adds a separate entry of the source.
# Experiment: Pharmacological function of triterpenes (earlier experiments and reports)
# Settings: inventors' experiments, no data given
compound,measurement,value
"CC1(C)CC[C@]2(C(=O)O)CC[C@]3(C)C(=CC[C@@H]4[C@@]5(C)CC[C@H](O)C(C)(C)[C@@H]5CC[C@]43C)[C@@H]2C1 [oleanolic acid, Oleanolic acid]",Pharmacological function of oleanolic acid from sugar beet,antibiosis to a tumor and hepatitis; also recorded: cariostatic (insoluble glucanynthesis inhibition)
